# Source: patent US9421173B2, “Nano delivery systems for siRNA” (YISSUM RESEARCH DEVELOPMENT COMPANY OF THE HEBREW …, priority 2011, dated 2016)
# Columns and labels:
# Type in all cases: physicochemical
# [1] = Melting point measurements for siRNAs (UV 260 nm); details: buffer 48 mM Tris, 96 mM NaCl, pH 7.1
# Procedure: Melting point measurements for different siRNAs (21-mer) used were performed on a UV-visible spectrophotometer (Cary 300) at 260 nm, by elevating the sample temperature from 20° C. to 85° C. at rate of 1° C./min. All siRNAs were dissolved in buffer (48 mM Tris, 96 mM NaCl, pH 7.1) to obtain a concentration of 4-10 ng/μl.
# The temperature at which the 50% of siRNA strands are denatured is called the melting temperature, or Tm. The Tm for various siRNAs (21 mers) used in our research, was measured and found to be: 78, 77 and 72° C. for GFP-siRNA, Chol-GFP-siRNA and EGFR-siRNA, respectively. With all examined siRNAs, beginning of separation was already observed at 60° C. (data not shown).
# [2] = Encapsulation efficacy of siRNA in crosslinked HSA NSs (Trypsin digestion, RP-HPLC); details: 200 μg siRNA
# Procedure: For encapsulation of siRNA inside crosslinked HSA NSs, siRNA was added to HSA solution prior the addition of desolvating phase. The rest of procedure was made exactly in the same manner detailed above, when instead of using DDW, RNAse free water (RNFW) was used. After crosslinking, the NSs were washed and the total ultrafiltrate was collected, lyophilized and reconstituted with 500 μl RNFW, from which, 160 ul were injected to HPLC. Since partial degradation of free siRNA in the ultrafiltrate was observed, the preferred way to determine siRNA content in the NSs is to directly determine siRNA content in the particle (after its digestion), and not based on the free siRNA (un-encapsulated) in the ultrafiltrate.
# The total weight of HSA per 100 μl of suspension (after wash) was quantified gravimetrically. Then 1-2 mg of washed HSA NPs encapsulating siRNA was diluted to 1 ml with RNase free PBS buffer (adjusted to pH=7.5 using 0.5 M NaOH solution) and digested with 20 to 150 μg Trypsin for 60, 90 or 180 min, at dark and under mild shaking at 37° C., till a clear solution was formed. In case sample containing DOTAP, Heparin (90 μg) was added to the aqueous phase, 0 or 60 min after the addition of Trypsin. The free siRNA quantity was determined using RP-HPLC, in the presence of Trypsin or without it.
# In order to determine the encapsulation efficacy of siRNA in the crosslinked HSA NSs, the washed NSs were digested with Trypsin till a clear solution was formed and the total siRNA content was detected using RP-HPLC and calculated based on AUC. According to the protocol we have developed in our lab (for detailing see section E), the reliability of such method in quantification the released siRNA, is highly efficient (FIGS. 5-6). A few trends can be concluded; In the presence of DOTAP, the best encapsulation (˜40%) accepted at the low basic pH (pH 8 and 7). At pH 9, removal of the DOTAP from NSs, have reduced encapsulation efficacies. This effect is more pronounced when the non cholesterol modified siRNA (GFP-siRNA) is used.
# [3] = Integrity evaluation of free siRNA exposed to pH 7, 8, 9 with or without glutaraldehyde (HPLC, PAGE 8%); details: for integrity of free siRNA in the presence of the cross linker (glutaraldehyde): 3 hr, all the pH tested (7, 8, 9), 'heavy' specie runs slower at the gel
# Procedure: FIGS. 16A-16B are gel retardation assays (PAGE 8%) for evaluation of free siRNA integrity after exposure to different conditions. Integrity evaluation was made for GFP-siRNA (FIG. 16A) and Chol-GFP-siRNA (FIG. 16B). Lane No. 1—ladder, Lane No. 2, 3—controls with 100 and 50 ng of untreated siRNA respectively. Lanes 4, 6 and 8, with siRNA exposed to pH 7, 8 and 9, respectively. Lanes 5, 7 and 9, with siRNA exposed to pH 7, 8 and 9 in the presence of glutaraldehyde (0.014% (v/v)), respectively.
# (§1) For siRNA integrity (stability) evaluation 8% (19:1) native polyacrylamide gels (PAGE) was used. Electrophoresis was carried out at 200V for 50 min, in Tris-Borate-EDTE (TBE) as running buffer. For siRNA staining, 0.01% of EtBr was used. Gels were visualized under a UV transilluminator.
# During the primal encapsulation process of siRNA in the HSA NSs it has been exposed to materials with distractive potential such as basic pH conditions and the presence of cross linker (glutaraldehyde) who can interact with the primal amine present in the nucleic bases: Guanine, Adenine or Cytosine. Hens, the need in siRNA integrity evaluation arise. First, integrity evaluation of the free siRNA (GFP-siRNA and Chol-GFP-siRNA) was made. The siRNAs were exposed to the same conditions used for production of crosslinked HSA NSs (3 hr at aqueous solutions with pH of 7, 8 or 9 with or without the presence of glutaraldehyde), then a fraction from each sample was analyzed using HPLC (data not shown) and gel retardation assay (PAGE 8%) (FIG. 16).
# [4] = Integrity evaluation of siRNA extracted from crosslinked HSA NSs and from NCs (HPLC, PAGE 8%); details: compared with untreated siRNA
# Procedure: FIGS. 17A-17B are gel retardation assays (PAGE 8%) for evaluation of extracted siRNA. Integrity evaluation was made for GFP-siRNA (FIG. 17A) and Chol-GFP-siRNA (FIG. 17B). Lane No. 1—ladder, Lane No. 2—control with 100 ng of untreated siRNA. Lanes 3-8 with siRNA extracted from primal crosslinked HSA NSs (produced in different pH conditions), Lanes 9 and 10, with siRNA extracted from NCs loaded with the primal crosslinked HSA.
# as §1
# Later, siRNAs were extracted from the primal crosslinked HSA NSs (produced in different pH conditions), and their integrity was assessed using HPLC (data not shown) and gel retardation assay (PAGE 8%) (FIG. 17). Furthermore, the stability of siRNAs extracted from NCs loaded with the primal crosslinked HSA was also examined ([…]—lanes No. 9 & 10), since secondary encapsulation process performed under heat (Tin is 50° C.), using the nano spray drying technique. […] Based on the HPLC results, the exact amount of encapsulated siRNA was determined. […]
Substance,"melting temperature, or Tm (50% of siRNA strands denatured) [1]","% encapsulation ([2]; pH 7, with 0.03 mg DOTAP)","Encapsulated is RNA ([2]; pH 7, with 0.03 mg DOTAP)","% encapsulation ([2]; pH 8, with 0.03 mg DOTAP)","Encapsulated is RNA ([2]; pH 8, with 0.03 mg DOTAP)","% encapsulation ([2]; pH 9, with 0.03 mg DOTAP)","Encapsulated is RNA ([2]; pH 9, with 0.03 mg DOTAP)","% encapsulation ([2]; pH 9, without DOTAP)","Encapsulated is RNA ([2]; pH 9, without DOTAP)",integrity of free siRNA in the presence of the cross linker (glutaraldehyde) [3],integrity of siRNA encapsulated in the primal HSA NSs or secondary NCs [4],"integrity of free siRNA at basic pH ([3]; 3 hr in aqueous solutions of pH 7, 8 or 9, without glutaraldehyde)"
"EGFR-siRNA: Anti Epidermal Growth Factor Receptor siRNA, 21 bp, MW 13,400 Da, SEQ ID NO: 1 and 2, purchased from Ambion (chain 1 CCAUAAAUGCUACGAAUAUTT; chain 2 AUAUUCGUAGCAUUUAUGGAG; a few LNA modifications, positions not given here, lowercase DNA)",72 °C,–,–,–,–,–,–,–,–,–,–,–
"GFP-siRNA: Anti Green Fluorescent Protein siRNA, 21 bp, MW 14,352 Da, SEQ ID NO: 5 and 6, provided by Roche (chain 1 AUAUCAUGGCCGACAAGCATT; chain 2 UGCUUGUCGGCCAUGAUAUTT; chemistry not fully specified)",78 °C,43%,86 µg,42%,84 µg,24%,48 µg,9%,18 µg,highly sensitive,stayed intact,–
"Chol-GFP-siRNA: Cholesterol modified GFP-siRNA, 21 bp, MW 15,079 Da, SEQ ID NO: 7 and 8, provided by Roche (chain 1 AUAUCAUGGCCGACAAGCATT; chain 2 UGCUUGUCGGCCAUGAUAUTT; 5' cholesteryl, chemistry not fully specified)",77 °C,39%,76 µg,40%,80 µg,26%,52 µg,16%,32 µg,highly sensitive,stayed intact,improved resistant to basic pH (8 and 9) compared to GFP-siRNA
